# “Also recorded” adds a separate entry of the source.
# System: microorganisms
# Assay: Targeting peptide binding to target microorganisms (Tables 3, 10, 12)
# Details: microorganism(s) the targeting peptide binds; binding in aqueous buffers varied with peptide solubility, preferably 1x PBS
row,Substance,Target(s)
1,PF-648 (ARRYPAAGS; Peptide with targeting and/or antimicrobial activity),S. mutans; also recorded: E. coli
2,PF-650 (IRSDQPGRQSRSSPRWPTGAGRHR; Peptide with targeting and/or antimicrobial activity),Mycobacteria spp
3,PF-669 (RADRIESYPADGDRVITLWRNPYR; Peptide with targeting and/or antimicrobial activity),Mycobacteria spp
4,PF-671 (TVSAFRTVH; Peptide with targeting and/or antimicrobial activity),S. mutans; also recorded: E. coli
5,PF-673 (VRRLRM; Peptide with targeting and/or antimicrobial activity),S. mutans; also recorded: E. coli
6,PF-674 (DGCDSEPALTYR; Peptide with targeting and/or antimicrobial activity),S. mutans; also recorded: E. coli
7,PF-676 (AEYRGL; Peptide with targeting and/or antimicrobial activity),S. mutans; also recorded: E. coli
8,PF-678 (RDRRWTRRDMYDWLESARV; Peptide with targeting and/or antimicrobial activity),Mycobacteria spp
9,PF-679 (CRARFIRR; Peptide with targeting and/or antimicrobial activity),S. mutans; also recorded: E. coli
10,PF-689 (SAPSG; Peptide with targeting and/or antimicrobial activity),S. mutans; also recorded: E. coli
11,PF-701 (PRGAQSGHG; Peptide with targeting and/or antimicrobial activity),S. mutans
12,PF-703 (MTTVDNIVGLVIAVALMAFLFAALLFPEKF; Peptide with targeting and/or antimicrobial activity),Mycobacteria spp
13,PF-705 (GEEEGTVAD; Peptide with targeting and/or antimicrobial activity),S. mutans; also recorded: E. coli
14,PF-706 (LGYGAWIGCGLGLNGFHRID; Peptide with targeting and/or antimicrobial activity),L. pneumophila
15,PF-707 (IDPESIVTTNNKQDNVDEQ; Peptide with targeting and/or antimicrobial activity),S. mutans; also recorded: E. coli
16,PF-709 (NKKHSPMD; Peptide with targeting and/or antimicrobial activity),S. mutans
17,PF-711 (KTAGPTGTIYKTN; Peptide with targeting and/or antimicrobial activity),S. mutans
18,PF-712 (QIYRHVHKVQAKSANLRLY; Peptide with targeting and/or antimicrobial activity),S. mutans; also recorded: E. coli
19,PF-714 (FVVTQRMLRMYKK; Peptide with targeting and/or antimicrobial activity),L. pneumophila
20,PF-716 (HGENHHHKSDEKDNDSSEKKD; Peptide with targeting and/or antimicrobial activity),S. mutans
21,PF-717 (PQSEVTFENIYAPKANGGGLYGI; Peptide with targeting and/or antimicrobial activity),E. coli
22,PF-720 (SLDMGK; Peptide with targeting and/or antimicrobial activity),S. mutans
23,PF-724 (CYRFLTPKRPTRIS; Peptide with targeting and/or antimicrobial activity),L. pneumophila
